According to patent US12583815B2, “Inhibitors of YAP/TAZ-TEAD oncoproteins, synthesis and use thereof” (BRIDGENE BIOSCIENCES, INC., priority 2020, dated 2026):

What follows are compounds tested against T1, TEAD1 (Homo sapiens, UniProt P28347) (assay: TEAD1-Luciferase reporter assay (MCF-7 cell-based TEAD1-Luc assay)). Conditions: cells treated with compound overnight, luciferase chemiluminescence readout.
T1 construct: endogenous in cells; host or cells: MCF-7
Method: TEAD1-Luciferase Reporter Assay to Characterize the Pharmacological Properties of the Tead1 Covalent Inhibitors
FIG. 1 is a schematic illustration of the mechanism of TEAD1 inhibition by the disclosed compounds, which is the theoretical basis for the development of a TEAD-YAP/TAZ cell-based functional assay to characterize the pharmacological properties of the synthesized inhibitor compounds. The MCF-7 cell-based TEAD1-Luc assay for the IC50 measurement was performed as below. Compounds 2, 4, 5, and 7, representing different chemical scaffolds, were characterized. About 200 μL of culture medium was placed in each of the 10^4 cell/well in a 96-well plate. The next day the cells were treated with the synthesized compounds for overnight. The luciferase activity was measured with a chemiluminescent assay kit. Specifically, the plate was equilibrated at room temperature. […] and 50 μL of the medium was left inside. To each well was added 50 μL Luciferase reagents. The plates were gently rocked for more than about 15 minutes at room temperature. The luminescence signal was then read and recorded. Table 2 below summarizes the measured IC50 values for the disclosed compounds.

T1 sequence (P28347 whole entry): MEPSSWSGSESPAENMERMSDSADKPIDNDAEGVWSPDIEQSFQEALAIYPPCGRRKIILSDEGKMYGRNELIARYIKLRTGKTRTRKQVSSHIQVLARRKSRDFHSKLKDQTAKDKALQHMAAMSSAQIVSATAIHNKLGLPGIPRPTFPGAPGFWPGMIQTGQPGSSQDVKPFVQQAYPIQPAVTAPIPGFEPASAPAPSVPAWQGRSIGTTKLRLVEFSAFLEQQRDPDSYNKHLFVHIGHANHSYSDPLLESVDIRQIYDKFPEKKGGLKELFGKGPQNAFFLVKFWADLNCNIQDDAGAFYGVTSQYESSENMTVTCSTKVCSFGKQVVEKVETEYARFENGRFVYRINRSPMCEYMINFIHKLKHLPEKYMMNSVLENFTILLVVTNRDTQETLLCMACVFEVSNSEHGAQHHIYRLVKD

Structure (SMILES)	IC50 [µM]
C=CC(=O)N[C@@H]1CC[C@@H](Oc2cccc(C(F)(F)F)c2)C1 [Compound 43, N-((1R,3R)-3-(3-(trifluoromethyl)phenoxy)cyclopentyl)acrylamide]	0.1 to 5
C=CC(=O)N[C@H]1CC[C@H](Oc2cccc(C(F)(F)F)c2)C1 [Compound 44, N-((1S,3S)-3-(3-(trifluoromethyl)phenoxy)cyclopentyl)acrylamide]	0.1 to 5
C=CC(=O)NC1CCC(Oc2cccc(C(F)(F)F)c2)C1 (stereo not shown) [Compound 45, N-(3-(3-(trifluoromethyl)phenoxy)cyclopentyl)acrylamide]	0.1 to 5
C=CC(=O)NC1CCC(Oc2cc(C(F)(F)F)on2)C1 (stereo not shown) [Compound 46, N-(3-((5-(trifluoromethyl)isoxazol-3-yl)oxy)cyclopentyl)acrylamide]	0.1 to 5
C=CC(=O)Nc1ccc2c(c1)CCC/C2=N\OCC [Compound 47, (E)-N-(5-(ethoxyimino)-5,6,7,8-tetrahydronaphthalen-2-yl)acrylamide]	≤ 0.1
C=CC(=O)Nc1ccc2c(c1)CCC/C2=N\OCCOCC [Compound 48, (E)-N-(5-((2-ethoxyethoxy)imino)-5,6,7,8-tetrahydronaphthalen-2-yl)acrylamide]	≤ 0.1
C=CC(=O)Nc1ccc2c(c1)CCC/C2=N\OCC(C)C [Compound 49, (E)-N-(5-(isobutoxyimino)-5,6,7,8-tetrahydronaphthalen-2-yl)acrylamide]	≤ 0.1
C=CC(=O)Nc1ccc2c(c1)CCN(CCCCC)C2=O [Compound 50, N-(1-oxo-2-pentyl-1,2,3,4-tetrahydroisoquinolin-6-yl)acrylamide]	0.1 to 5
C=CC(=O)Nc1ccc(-c2cc(C(F)(F)F)ccn2)cc1 [Compound 51, N-(4-(4-(trifluoromethyl)pyridin-2-yl)phenyl)acrylamide]	0.1 to 5
C=CC(=O)Nc1ccc(-c2cncc(C(F)(F)F)c2)cc1 [Compound 52, N-(4-(5-(trifluoromethyl)pyridin-3-yl)phenyl)acrylamide]	≤ 0.1
C=CC(=O)Nc1ccc(-c2cc(C(F)(F)F)cnn2)cc1 [Compound 53, N-(4-(5-(trifluoromethyl)pyridazin-3-yl)phenyl)acrylamide]	0.1 to 5
C=CC(=O)Nc1ccc(-c2cc(C(F)(F)F)sn2)cc1 [Compound 54, N-(4-(5-(trifluoromethyl)isothiazol-3-yl)phenyl)acrylamide]	≤ 0.1
C=CC(=O)Nc1ccc(-c2ccn(CC(F)(F)F)n2)cc1 [Compound 55, N-(4-(1-(2,2,2-trifluoroethyl)-1H-pyrazol-3-yl)phenyl)acrylamide]	0.1 to 5
C=CC(=O)N1CC(Oc2ccc(C(F)(F)F)cc2)C1 [Compound 56, 1-(3-(4-(trifluoromethyl)phenoxy)azetidin-1-yl)prop-2-en-1-one]	0.1 to 5
C=CC(=O)NC1CC(COc2cccc(C(F)(F)F)c2)C1 (stereo not shown) [Compound 58, N-(3-((3-(trifluoromethyl)phenoxy)methyl)cyclobutyl)acrylamide]	≤ 0.1
C=CC(=O)N1CC(Cc2ccc(C(F)(F)F)cc2)C1 [Compound 59, 1-(3-(4-(trifluoromethyl)benzyl)azetidin-1-yl)prop-2-en-1-one]	0.1 to 5
C=CC(=O)N1CC(NCc2cccc(C(F)(F)F)c2)C1 [Compound 60, 1-(3-((3-(trifluoromethyl)benzyl)amino)azetidin-1-yl)prop-2-en-1-one]	0.1 to 5
C=CC(=O)NC1CC(OCc2cccc(C(F)(F)F)c2)C1 (stereo not shown) [Compound 61, N-(3-((3-(trifluoromethyl)benzyl)oxy)cyclobutyl)acrylamide]	≤ 0.1
C=CC(=O)NC12CC(COc3cccc(C(F)(F)F)c3)(C1)C2 [Compound 62, N-(3-((3-(trifluoromethyl)phenoxy)methyl)bicyclo[1.1.1]pentan-1-yl)acrylamide]	≤ 0.1
C=CC(=O)NC1CC2(CC(NCc3cccc(C(F)(F)F)c3)C2)C1 (stereo not shown) [Compound 63, N-(6-((3-(trifluoromethyl)benzyl)amino)spiro[3.3]heptan-2-yl)acrylamide]	≤ 0.1
C=CC(=O)NC1CC2(C1)CC(Oc1cccc(C(F)(F)F)c1)C2 (stereo not shown) [Compound 64, N-(6-(3-(trifluoromethyl)phenoxy)spiro[3.3]heptan-2-yl)acrylamide]	≥ 5
C=CC(=O)Nc1ccc(-c2cc(C(C)(C)C)on2)cc1 [Compound 65, N-(4-(5-(tert-butyl)isoxazol-3-yl)phenyl)acrylamide]	0.1 to 5
